From US20200288711A1, “Pyrimidin-4-Carbamate or Urea Derivatives As Herbicides” (Syngenta Participations AG, priority 2017, published 2020)

Tests used:
Type in all cases: in vivo
[1] = tested on: Triticum aestivium (TRZAW); assay: B2 post-emergence herbicidal activity; design: key: 5=total damage to plant; 0=no damage to plant; settings: Test 2b, rate 1000 g/ha, evaluated after 13 days, score 0-5 (5=total damage, 0=no damage)
Protocol: (§1) Seeds of a variety of test species were sown in standard soil in pots: Triticum aestivium (TRZAW), Avena fatua (AVEFA), Alopecurus myosuroides (ALOMY), Echinochloa crus-galli (ECHCG), Lolium perenne (LOLPE), Zea mays (ZEAMX), Abutilon theophrasti (ABUTH), Amaranthus retroflexus (AMARE) and Setaria faberi (SETFA). After 8 days cultivation (post-emergence) under controlled conditions in a glasshouse (at 24/16° C., day/night; 14 hours light; 65% humidity), the plants were sprayed with an aqueous spray solution derived from the formulation of the technical active ingredient in acetone/water (50:50) solution containing 0.5% Tween 20 (polyoxyethelyene sorbitan monolaurate, CAS RN 9005-64-5). The test plants were then grown in a glasshouse under controlled conditions (at 24/16° C., day/night; 14 hours light; 65% humidity) and watered twice daily. After 13 days, the test was evaluated (5=total damage to plant; 0=no damage to plant).

[2] = tested on: Setaria faberi (SETFA); assay: B2 post-emergence herbicidal activity; design: key: 5=total damage to plant; 0=no damage to plant; settings: Test 2b, rate 1000 g/ha, evaluated after 13 days, score 0-5 (5=total damage, 0=no damage)
Protocol: as §1

[3] = tested on: Lolium perenne (LOLPE); assay: B2 post-emergence herbicidal activity; design: key: 5=total damage to plant; 0=no damage to plant; settings: Test 2b, rate 1000 g/ha, evaluated after 13 days, score 0-5 (5=total damage, 0=no damage)
Protocol: as §1

[4] = tested on: Alopecurus myosuroides (ALOMY); assay: B2 post-emergence herbicidal activity; design: key: 5=total damage to plant; 0=no damage to plant; settings: Test 2b, rate 1000 g/ha, evaluated after 13 days, score 0-5 (5=total damage, 0=no damage)
Protocol: as §1

[5] = tested on: Avena fatua (AVEFA); assay: B2 post-emergence herbicidal activity; design: key: 5=total damage to plant; 0=no damage to plant; settings: Test 2b, rate 1000 g/ha, evaluated after 13 days, score 0-5 (5=total damage, 0=no damage)
Protocol: as §1

[6] = tested on: Echinochloa crus-galli (ECHCG); assay: B2 post-emergence herbicidal activity; design: key: 5=total damage to plant; 0=no damage to plant; settings: Test 2b, rate 1000 g/ha, evaluated after 13 days, score 0-5 (5=total damage, 0=no damage)
Protocol: as §1

[7] = tested on: Setaria faberi (SETFA); assay: B1 pre-emergence herbicidal activity; design: key to Pre-emergence herbicidal activity, SETFA: 5=total damage to plant; 0=no damage to plant; settings: Test 1b, rate 1000 g/ha, evaluated after 13 days, score 0-5 (5=total damage, 0=no damage)
Protocol: as §1, with “After” for “After 8 days”, “for one day (pre-emergence)” for “(post-emergence)”

[8] = tested on: Echinochloa crus-galli (ECHCG); assay: B1 pre-emergence herbicidal activity; design: key to Pre-emergence herbicidal activity, ECHCG: 5=total damage to plant; 0=no damage to plant; settings: Test 1b, rate 1000 g/ha, evaluated after 13 days, score 0-5 (5=total damage, 0=no damage)
Protocol: as §1, with “After” for “After 8 days”, “for one day (pre-emergence)” for “(post-emergence)”

[9] = tested on: Triticum aestivium (TRZAW); assay: B1 pre-emergence herbicidal activity; design: key: 5=total damage to plant; 0=no damage to plant; settings: Test 1b, rate 1000 g/ha, evaluated after 13 days, score 0-5 (5=total damage, 0=no damage)
Protocol: as §1, with “After” for “After 8 days”, “for one day (pre-emergence)” for “(post-emergence)”

[10] = tested on: Lolium perenne (LOLPE); assay: B1 pre-emergence herbicidal activity; design: key: 5=total damage to plant; 0=no damage to plant; settings: Test 1b, rate 1000 g/ha, evaluated after 13 days, score 0-5 (5=total damage, 0=no damage)
Protocol: as §1, with “After” for “After 8 days”, “for one day (pre-emergence)” for “(post-emergence)”

[11] = tested on: Alopecurus myosuroides (ALOMY); assay: B1 pre-emergence herbicidal activity; design: key: 5=total damage to plant; 0=no damage to plant; settings: Test 1b, rate 1000 g/ha, evaluated after 13 days, score 0-5 (5=total damage, 0=no damage)
Protocol: as §1, with “After” for “After 8 days”, “for one day (pre-emergence)” for “(post-emergence)”

[12] = tested on: Avena fatua (AVEFA); assay: B1 pre-emergence herbicidal activity; design: key: 5=total damage to plant; 0=no damage to plant; settings: Test 1b, rate 1000 g/ha, evaluated after 13 days, score 0-5 (5=total damage, 0=no damage)
Protocol: as §1, with “After” for “After 8 days”, “for one day (pre-emergence)” for “(post-emergence)”

Row | SMILES | Control of weed species after post-emergence application, TRAZW [1] | Control of weed species after post-emergence application, SETFA [2] | Control of weed species after post-emergence application, LOLPE [3] | Control of weed species after post-emergence application, ALOMY [4] | Control of weed species after post-emergence application, AVEFA [5] | Control of weed species after post-emergence application, ECHCG [6] | Pre-emergence herbicidal activity, SETFA [7] | Pre-emergence herbicidal activity, ECHCG [8] | Pre-emergence herbicidal activity, TRAZW [9] | Pre-emergence herbicidal activity, LOLPE [10] | Pre-emergence herbicidal activity, ALOMY [11] | Pre-emergence herbicidal activity, AVEFA [12]
1 | O=C1OCCN1c1cnc(-c2cncc(F)c2)nc1C(F)(F)F [Compound E17] | 1 | 4 | 1 | 0 | 2 | 3 | 4 | 3 | 0 | 0 | 0 | 0
2 | CCOC(=O)Nc1cnc(-c2cncc(F)c2)nc1C(F)(F)F [Compound E19] | 1 | 5 | 3 | 0 | 3 | 5 | 4 | 3 | 0 | 1 | 0 | 0
3 | CN(C)C(=O)Nc1cnc(-c2cncc(F)c2)nc1C(F)(F)F [Compound E13] | 2 | 5 | 3 | 1 | 3 | 4 | 4 | 3 | 0 | 1 | 0 | 1
4 | Cc1nc(-c2cncnc2)ncc1NC(=O)OC(C)(C)C [Compound E7, tert-butyl N-(4-methyl-2-pyrimidin-5-yl-pyrimidin-5-yl)carbamate] | 0 | 4 | 2 | 0 | 3 | 4 | 4 | 5 | 0 | 1 | 0 | 2
5 | COC(=O)Nc1cnc(-c2cncc(F)c2)nc1C(F)(F)F [Compound E21] | 1 | 4 | 2 | 1 | 4 | 5 | 4 | 3 | 1 | 0 | 1 | 0
6 | CC(C)(C)OC(=O)Nc1cnc(-c2cncc(F)c2)nc1C(F)(F)F [Compound E4, tert-butyl N-[2-(5-fluoro-3-pyridyl)-4-(trifluoromethyl)pyrimidin-5-yl]carbamate] | 1 | 5 | 3 | 1 | 4 | 4 | 4 | 4 | 0 | 1 | 0 | 4
7 | CC(C)OC(=O)N(C(=O)OC(C)C)c1cnc(-c2cncc(F)c2)nc1C(F)(F)F [Compound E22] | 4 | 1 | 4 | 0 | 0 | 5 | 4 | 3 | 0 | 0 | 0 | 0
8 | C=CCN(C(=O)OC(C)(C)C)c1cnc(-c2cncnc2)nc1C [Compound E6] | 1 | 5 | 1 | 1 | 2 | 3 | 5 | 3 | 0 | 1 | 0 | 1
9 | CC(C)COC(=O)Nc1cnc(-c2cncc(F)c2)nc1C(F)(F)F [Compound E15] | 2 | 5 | 3 | 1 | 4 | 5 | 5 | 5 | 0 | 1 | 0 | 2
